US6583333B1, “Lymphoma-susceptible transgenic mice and methods for studying drug sensitivity of lymphomas” (Cold Spring Harbor Laboratory, priority 1998, dated 2003)

How the values were obtained:
[1] = tested on: Eμ-myc lymphoma cell line L1025; test: In vitro sensitivity of lymphoma cell lines, viability by trypan blue exclusion; type: cell-based, mouse; details: line L1025 from a resistant tumor, 24-hour treatment, FIG. 8
Method: Several lymphoma lines have been isolated from Eμ-myc mice in which the response to adriamycin of the original tumor was known. Eμ-myc lymphoma cell lines cultured in vitro were tested for their sensitivity to adriamycin. Lymphocytes were counted. The cells were spun down and resuspended in pre-conditioned B cell media (media that has been on feeder cells for 24 hours) at a concentration of 2×10^6 cells/ml. 10^6 cells were seeded per well of a tissue culture plate, in 0.5 ml. Adriamycin was suspended in pre-conditioned B cell media at twice the final concentration. Final concentrations of adriamycin were 0.25, 0.05, 0.075, 0.1, 0.5 and 1.0 μg/ml. 0.5 of medium was added to each well, to a final volume of 1 ml. Cells were incubated for 24 hours at 37° C. Cells were transferred from the wells to Eppendorf tubes on ice, and centrifuged at 2500 rpm for 5 minutes at 4° C. The medium was poured off the cell pellets, leaving about 200 μl of medium in each tube. One drop of trypan blue dye was added to each tube, and a total of 200 cells per sample were counted under a microscope. Live cells exclude trypan blue and appear white; dead cells take up trypan blue and appear blue.
L877 has been tested as Eμ-myc/p53^−/−; the other cell lines are derived from Eμ-myc/p53^+ mice and are presumably p53^+/+.

Eμ-myc/p53^−/− lymphoma = test: White blood cell counts of lymphoma-associated leukemia after treatment; type: in vivo; details: Eμ-myc/p53^−/− mouse, 10 mg/kg, 0-24 hours after treatment, FIG. 6, one mouse
Method: Eμ-myc/p53^+ mice (C57BL/6) and Eμ-myc/p53^−/− (C57BL/6 x 129; p53^−/LOH in FIGS. 6 and 7) with leukemia associated with primary lymphoma, were treated with either adriamycin at 10 mg/kg of body weight or with 6 Gy of whole body gamma-irradiation. Blood samples were taken and white blood cells were counted in a hemocytometer at 0, 4, 8, 12 and 24 hours after treatment. […] The data plotted in FIGS. 6 and 7 are from one treated mouse of each genotype.

[2] = tested on: Eμ-myc lymphomas from p53^+/− mice; test: Effect of p53 defect on therapy in Eμ-myc/p53^+/− mice; type: in vivo, mouse; details: 10 Eμ-myc/p53^+/− mice, 10 mg/kg, FIG. 14
Method: Since most Eμ-myc lymphomas from p53^+/− mice lose the wild-type p53 allele, it was possible to study the response of essentially p53-deficient tumors in mice that were otherwise hemizygous for p53 and not prone to thymic lymphoma (see strategy in FIG. 13). […] The response of Eμ-myc lymphomas with p53 defects to 10 mg/kg adriamycin therapy resembled that of Eμ-myc/p53^+/+ lymphomas following their second relapse (See FIG. 4).

[3] = tested on: L700 cell line derived from an Eμ-myc (p53^+) tumor; test: Detection of caspase activation (biotin-YVAD-amk labelling, blot); type: cell-based, mouse; details: 0.1 μg/ml, 0, 3, 6 or 9 hours, FIG. 10
Method: Procedures were as published in Faleiro, L., et al., EMBO J. 16:2271-2281, 1997). Isolated L700 cells growing in culture dishes were treated with 0.1 μg/ml adriamycin. After 0, 3, 6 or 9 hours, cell lysates were made in the presence of 10 μM biotin-YVAD-amk to label caspases, and the protein concentrations were determined. Protein samples were run on a 15% acrylamide-0.1% SDS gel. Proteins were transferred from the gel to Immobilon P membrane (Millipore). Membranes were washed in methanol and air dried. Dried, baked membranes were incubated in biotinylated horseradish peroxidase at 25 ng/ml. Labeled proteins were visualized with ECL reagent (Amersham).

[4] = tested on: secondary tumors arising from transplanted L885 cells; test: Drug sensitivity of transplanted tumor cell line L885, by palpation; type: in vivo, mouse; details: 10 mg/kg, 9 secondary tumors vs 22 primary tumors, FIG. 11
Method: (§1) Eμ-myc lymphomas were cultured using feeder layers (see Example 7). Several of these cell lines were transplanted into syngeneic C57BL/6 recipients by injection of 10^6 cells into the tail vein. Tumor-bearing animals were assessed for response to 10 mg/kg adriamycin therapy, by palpation for tumors.

[5] = tested on: transplanted L1537 cells (homozygous for p53^−); test: Drug sensitivity of transplanted tumor cell line L1537; type: in vivo, mouse; details: two C57BL/6 mice, 10 mg/kg
Method: as §1
Tumor cell line L1537 was derived from an Eμ-myc/p53^+/− lymphoma and was tested as homozygous for p53^−. Tumor cells were transplanted, by the method described above, into two C57BL/6 mice.

[6] = tested on: transplanted Eμ-myc lymphoma cells in C57BL/6 mice; test: Tumor transplantation into syngeneic mice, response to treatment by palpation; type: in vivo, mouse; details: 10^6 cells by tail vein into C57BL/6, 10 mg/kg, compared with primary tumors, FIG. 5
Text: Upon discovery of tumors in a Eμ-myc transgenic mouse, lymphoma cells were harvested, and 10^6 cells were immediately transplanted into multiple C57BL/6 mice (Taconic Laboratories) by tail vein injection. Tumors were allowed to form (usually in about two weeks). Treatment with adriamycin was given as in Example 5. […] The results (as assessed by palpation for tumors) plotted in FIG. 5 are from 22 mice with primary tumors, and 10 mice with transplanted tumors.

[7] = tested on: primary myc-induced lymphomas in Eμ-myc transgenic mice; test: Response to therapy of primary myc-induced lymphomas (remission/relapse by palpation and blood smears); type: in vivo, mouse; details: single treatment 10 mg/kg intraperitoneal, FIG. 4
Method: Eμ-myc transgenic mice were treated with 10 mg/kg body weight adriamycin (maximum tolerated dose) by intraperitoneal injection using adriamycin freshly resuspended in water to a final concentration of 1 mg/ml. Treated mice were monitored for remission and for relapse by palpation and by blood smears to obtain white blood cell counts.
Palpation is performed by gently feeling the mouse for bumps under the skin, which are enlarged lymph nodes.
Blood smears are done by collecting blood from the tail artery, and examining a dried droplet of blood which has been smeared on a glass microscope slide to be one cell layer thick at the edge. The blood smear is stained after drying, using LEUKOSTAT™ stain (Fisher Diagnostics cat. # CS43A-C). The blood smear can be mounted with Permount™ histological mounting medium (Fisher Scientific). Slides are viewed under 40X or oil emersion. Blood from mice affected by lymphoma are always compared with blood from mice from a normal mouse drawn at the same time.
The numbers of mice used to generate the data in FIG. 4 were 22 (first treatment), 14 (second treatment) and 5 (third treatment).

In the case of COc1cccc2c1C(=O)c1c(O)c3c(c(O)c1C2=O)C[C@@](O)(C(=O)CO)C[C@@H]3O[C@H]1C[C@H](N)[C@H](O)[C@H](C)O1 [adriamycin], the “sensitivity in cell culture (percent viable cells)” value [1] is reported as “sensitive in cell culture”, the “sensitivity of lymphoma-associated leukemia (white blood cell counts)” value (Eμ-myc/p53^−/− lymphoma) is reported as “insensitive” and the “response to therapy (percentage of tumor-free mice)” value [2] is reported as “almost completely refractory to therapy”. The caspase activation [3] was “caspase activation following drug treatment”, the “response of transplanted L885 tumors to therapy” value [4] was “virtually indistinguishable from that seen in the primary, non-transplanted lymphomas” and the “response of transplanted L1537 tumors to therapy” value [5] was “Both mice failed to respond”. For the same compound, the “response of transplanted (secondary) tumors to treatment” value [6] was “A higher percentage of these secondary tumors failed to respond to treatment” and the “response to therapy (time to relapse by palpation)” value [7] was “the vast majority of the mice respond to therapy”.
